Results as given in US20240148821A1, “PHARMACEUTICAL USE OF CYCLIC PEPTIDE COMPOUND” (CHUGAI SEIYAKU KABUSHIKI KAISHA, priority 2021, published 2024).
Numbered stars: 1 amine (or outer) side, 2 acyl side, 3 side chain; on linkers, the order of the positions; unused ones are H or OH. Bridge positions count the residues as written; N and C are the ends. Square brackets hold non-standard residues; d marks the D form. Peptide text beside a SMILES is read from it. * marks the point of attachment. hPhe(3-Cl-4-CF3) = N[C@@H](CCc1ccc(C(F)(F)F)c(Cl)c1)C(=O)O; hPhe(3-F,4-CF3) = N[C@@H](CCc1ccc(C(F)(F)F)c(F)c1)C(=O)O; NMePhe(4-Cl) = CN[C@@H](Cc1ccc(Cl)cc1)C(=O)O; NMePhe(4-Me) = CN[C@@H](Cc1ccc(C)cc1)C(=O)O; NMedβ3hAla = C[C@H](CC(=O)[*:2])N(C)[*:1]; hNle(7,7-F2) = N[C@@H](CCCCC(F)F)C(=O)O; NMeGly(cPent) = CN[C@H](C(=O)O)C1CCCC1; NMeCha = CN[C@@H](CC1CCCCC1)C(=O)O; NMeAhp(2) = CCCCC[C@H](NC)C(=O)O; NMeI = CC[C@H](C)[C@H](NC)C(=O)O; NMeD = CN[C@@H](CC(=O)O)C(=O)O; NMeL = CN[C@@H](CC(C)C)C(=O)O; NMeV = CN[C@H](C(=O)O)C(C)C; d(β3hA) = C[C@@H](N)CC(=O)O; Azetidin(1-yl) = C1CN(*)C1; NMeA = CN[C@@H](C)C(=O)O; NMeAib = CNC(C)(C)C(=O)O; Nle = CCCC[C@H](N)C(=O)O; Piperidide = C1CCN(*)CC1; Ac5c = NC1(C(=O)O)CCCC1; Aze = O=C(O)[C@@H]1CCN1; Sar = CNCC(=O)O

How the values were obtained:
[1] = test system: Human pancreatic cancer cell line AsPC-1 (G12D mutation Kras); test: AsPC-1 cell growth inhibition (AsPC-1 CGI); format: cell-based; conditions: read-out: AsPC-1 cell growth inhibition, 50% growth inhibitory concentration (IC50 value); 96 hours, CellTiter-Glo, values classified in ranges
Procedure: Test compounds were serially dilated with dimethyl sulfoxide, and 200 nL was then dispensed to a U-bottom 96-well plate using Labcyte Echo. […] The cell suspension was dispensed to a. plate containing a test compound at 100 μL per well and incubated at 37° C. in a 5% carbon dioxide gas incubator. 96 hours later, 80 μL of CellTiter-Glo (Promega) was added to each well and fluorescence was measured.

[2] = biological target: protein-protein interaction between Kras and SOS1 (biotin-tagged human Kras loaded with GDP, His-tagged human SOS1) (Homo sapiens (Human), UniProt P01116, G12D); test: Protein-protein interaction inhibition between Kras and SOS1 (KrasG12D-SOS PPI) using AlphaScreen; format: biochemical; conditions: AlphaScreen; biotin-tagged human Kras loaded with GDP, His-tagged human SOS1; read-out: KRAS G12D-SOS PPI IC50;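 further: kras produced in E. coli, Ni-coupled donor beads and streptavidin acceptor beads, excitation 680 nm with emission detected at 520–620 nm via singlet oxygen transfer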

| Structure (SMILES) | IC50 [1] | IC50 [2] |
| --- | --- | --- |
| CC[C@H](C)[C@@H]1NC(=O)[C@H](CC(C)C)N(C)C(=O)C[C@@H](C(=O)N(C)C)N(C)C(=O)[C@H](C2CCCC2)N(C)C(=O)C2(CCCC2)NC(=O)[C@@H]2CCCN2C(=O)[C@H](CCc2ccc(C(F)(F)F)c(F)c2)NC(=O)CN(C)C(=O)[C@H](C2CCCC2)N(C)C(=O)[C@@H]2CCN2C(=O)[C@H](C)N(C)C1=O [Compound 134] ([NMeL]I[NMeA][Aze][NMeGly(cPent)][Sar][hPhe(3-F,4-CF3)]P[Ac5c][NMeGly(cPent)][NMeD]-NMe2; lactam N-11) | ≤ 0.02 µM | 0.00061 µM |
| CC[C@H](C)[C@@H]1NC(=O)[C@H](CC(C)C)N(C)C(=O)C[C@@H](C(=O)N2CCCCC2)N(C)C(=O)[C@H](C(C)C)N(C)C(=O)C2(CCCC2)NC(=O)[C@@H]2CCCN2C(=O)[C@H](CCc2ccc(C(F)(F)F)c(F)c2)NC(=O)CN(C)C(=O)[C@H](CC2CCCCC2)N(C)C(=O)CN(C)C(=O)[C@@H]2CCN2C1=O [Compound 139] ([NMeL]I[Aze][Sar][NMeCha][Sar][hPhe(3-F,4-CF3)]P[Ac5c][NMeV][NMeD]-Piperidide; lactam N-11) | > 0.5 µM | 0.0084 µM |
| CCCCC[C@H]1C(=O)N[C@@H]([C@@H](C)CC)C(=O)N(C)[C@@H](C)C(=O)N2CC[C@H]2C(=O)N(C)[C@@H](CC2CCCCC2)C(=O)N(C)CC(=O)N[C@@H](CCc2ccc(C(F)(F)F)c(Cl)c2)C(=O)N2CCC[C@H]2C(=O)NC2(CCCC2)C(=O)N(C)[C@@H](C2CCCC2)C(=O)N(C)[C@H](C(=O)N2CCC2)CC(=O)N1C [Compound 144] ([NMeAhp(2)]I[NMeA][Aze][NMeCha][Sar][hPhe(3-Cl-4-CF3)]P[Ac5c][NMeGly(cPent)][NMeD]-{Azetidin(1-yl)}; lactam N-11) | ≤ 0.02 µM | 0.0011 µM |
| CC(C)C[C@H]1C(=O)N[C@@H](CCCCC(F)F)C(=O)N(C)[C@@H](C)C(=O)N2CC[C@H]2C(=O)N(C)[C@@H](CC2CCCCC2)C(=O)N(C)CC(=O)N[C@@H](CCc2ccc(C(F)(F)F)c(Cl)c2)C(=O)N2CCC[C@H]2C(=O)NC2(CCCC2)C(=O)N(C)[C@@H](C(C)C)C(=O)N(C)[C@H](C(=O)N2CCCCC2)CC(=O)N1C [Compound 145] ([NMeL][hNle(7,7-F2)][NMeA][Aze][NMeCha][Sar][hPhe(3-Cl-4-CF3)]P[Ac5c][NMeV][NMeD]-Piperidide; lactam N-11) | > 0.5 µM | 0.025 µM |
| CC[C@H](C)[C@@H]1NC(=O)[C@H](CC(C)C)N(C)C(=O)C[C@@H](C(=O)N2CCC2)N(C)C(=O)[C@H]([C@@H](C)CC)N(C)C(=O)C2(CCCC2)NC(=O)[C@@H]2CCCN2C(=O)[C@H](CCc2ccc(C(F)(F)F)c(Cl)c2)NC(=O)CN(C)C(=O)[C@H](CC2CCCCC2)N(C)C(=O)[C@@H]2CCN2C(=O)[C@H](C)N(C)C1=O [Compound 150] ([NMeL]I[NMeA][Aze][NMeCha][Sar][hPhe(3-Cl-4-CF3)]P[Ac5c][NMeI][NMeD]-{Azetidin(1-yl)}; lactam N-11) | ≤ 0.02 µM | 0.0013 µM |
| CC[C@H](C)[C@@H]1NC(=O)[C@H](C)N(C)C(=O)C[C@@H](C)NC(=O)[C@H](C2CCCC2)N(C)C(=O)C2(CCCC2)NC(=O)[C@@H]2CCCN2C(=O)[C@H](CCc2ccc(C(F)(F)F)c(Cl)c2)NC(=O)CN(C)C(=O)[C@H](Cc2ccc(C)cc2)N(C)C(=O)[C@@H]2CCCN2C(=O)CN(C)C1=O [Compound 151] (cyclo([Ac5c][NMeGly(cPent)][d(β3hA)][NMeA]I[Sar]P[NMePhe(4-Me)][Sar][hPhe(3-Cl-4-CF3)]P)) | > 0.5 µM | 0.005 µM |
| CC[C@H](C)[C@@H]1NC(=O)[C@H](CC(C)C)N(C)C(=O)C[C@@H](C(=O)N2CCCCC2)N(C)C(=O)[C@H](C(C)C)N(C)C(=O)C2(CCCC2)NC(=O)[C@H](C)NC(=O)[C@H](CCc2ccc(C(F)(F)F)c(Cl)c2)NC(=O)CN(C)C(=O)[C@H](CC2CCCCC2)N(C)C(=O)CN(C)C(=O)CN(C)C1=O [Compound 156] ([NMeL]I[Sar][Sar][NMeCha][Sar][hPhe(3-Cl-4-CF3)]A[Ac5c][NMeV][NMeD]-Piperidide; lactam N-11) | > 0.5 µM | 0.00098 µM |
| CCCC[C@@H]1NC(=O)[C@H](CCc2ccc(C(F)(F)F)c(F)c2)NC(=O)CN(C)C(=O)[C@H](Cc2ccc(Cl)cc2)N(C)C(=O)CN(C)C(=O)CN(C)C(=O)[C@H]([C@@H](C)CC)NC(=O)[C@H](CC(C)C)N(C)C(=O)C[C@@H](C)N(C)C(=O)[C@H](CC(C)C)NC(=O)C(C)(C)N(C)C1=O [Compound 165] (cyclo(I[Sar][Sar][NMePhe(4-Cl)][Sar][hPhe(3-F,4-CF3)][Nle][NMeAib]L[NMedβ3hAla][NMeL])) | > 0.5 µM | 0.041 µM |
